Assay results: patent US20040106626A1, “6-Membered unsaturated heterocyclic compounds useful for selective inhibition of the coagulation cascade” (Pharmacia Corporation, priority 2001, published 2004)
Several values for one entry are separate records, joined by “and”; a condition that tells them apart may be missing. Equal entries are not always repeated.

Legend:
[1] = system: thrombus formation in vena cava; assay: Deep vein thrombosis model, thrombus accumulation on threads in vena cava; format: in vivo, Macaca fascicularis; details: non-human primate, n=4
From the text: This model measures the accumulation of thrombus on a set of four threads (4-0 surgical silk) that are introduced into the vena cava of a non-human primate. The device used to introduce the threads consists of a copper wire (12 cm) contained in a sheath of polyethylene tubing (9 cm). Four 4-0 surgical silk threads (3 cm) are tied to the end of the wire and retracted into the tubing. When the device is inserted into the iliac vein, the wire is advanced introducing the threads into the vena cava between the bifurcation and the left renal vein.
(§1) Non-human primates (Macaca fascicularis) are lightly anesthetized with ketamine to facilitate placement of an endotracheal tube and a femoral venous catheter. Animals are put into and maintained in a deep plane of anesthesia using pentobarbital via the femoral vein cannula. A jugular vein is cannulated for infusion of drug and a carotid artery is cannulated for blood sampling and for monitoring hemodynamic parameters.
The abdominal cavity is opened and an ultrasonic flow probe placed on the left iliac vein. The right iliac vein (RIV) is dissected free of surrounding tissue for a length of approximately 4 cm. The RIV is ligated approximately 4 cm distal to the bifurcation of the abdominal vena cava and a second ligature is placed, loosely, approximately 2 cm distal to the bifurcation. An incision is made in the RIV between the two ligatures, the device described above introduced into the iliac vein and the threads advanced into the vena cava. Every study consists of three thrombus measurements:
Control—Saline infusion. Threads are introduced and left in for 30 min, removed and thrombus weighed.
Treatment 1—Aspirin administered as a bolus or compound as an infusion. For aspirin treatment, aspirin is administered as a bolus and a 30 min equilibration period is allowed to assure the platelets are inhibited. For compound treatment, infusion is started and allowed to run for 30 min to reach steady-state blood levels of compound. Threads are introduced and left in for 30 min, removed and thrombus weighed;
Treatment 2—Compound administered as an infusion. Compound infusion is started and allowed to run for 30 min to reach steady-state blood levels of compound. Threads are introduced and left in for 30 min, removed and thrombus weighed.
During the 30 min equilibration/infusion periods of Treatment 1 and Treatment 2, a piece of tubing containing a copper wire, but no threads, is introduced into the vein to maintain the integrity of the vessel. After the threads have been in the vessel for 30 min, the entire device is removed from the vessel and the threads are cut from the device and weighed. The weight of the threads prior to insertion in the vessel is subtracted to get the net thrombus weight

[2] = system: bleeding time; assay: Bleeding time in deep vein thrombosis model; format: in vivo, Macaca fascicularis; details: non-human primate, n=4
Description: To measure bleeding time, a blood pressure cuff is placed on the upper arm and inflated to 40 mm Hg. Two uniform cuts are made in the volar surface of the forearm, the blood from the cuts is collected onto a gauze pad every 30 sec. The time from when the cuts are made until the bleeding stops is considered the bleeding time. All gauze used to collect blood is placed in Drabkin's solution and the amount of blood lost from the bleeding time site is calculated based on the amount of hemoglobin measured in the Drabkin's solution.

[3] = system: prothrombin time; assay: Prothrombin time in deep vein thrombosis model; format: in vivo, Macaca fascicularis; details: non-human primate, n=4
Description: The prothrombin time (PT) assay is a clotting assay that is used to determine deficiencies of clotting factor activity in the extrinsic pathway. The assay measures time to clotting after the addition of thromboplastin (human tissue factor). Normal human pooled plasma is incubated with 100 uM compound or saline in a coagulation machine. Thromboplastin is added and time to clotting is measured. Compounds with greater than 3×normal PT of 11.0 seconds are further analyzed by concentration response to determine at what concentration the prothrombin time is prolonged by 2×normal.
as §1
The table below depicts the effects of Aspirin coadministered with a compound of the present invention (compounds 54 and 55 are salts of the compound tested) on thrombus formation, prothrombin time and bleeding time in a non-human primate model of deep vein thrombosis.

[4] = target: T1, recombinant soluble tissue factor and recombinant human factor VIIa (TF-VIIa) (Homo sapiens, UniProt P08709); assay: TF-VIIa assay (chromogenic substrate hydrolysis); format: biochemical; details: reported only as less than or greater than 0.1 uM
T1 construct: conversion of coagulation factor VII to VIIa by factor Xa; purchased American Diagnostica, Greenwich CT; host or cells: soluble TF made in house in E. coli
T1 sequence (P08709 213-466 limits assumed): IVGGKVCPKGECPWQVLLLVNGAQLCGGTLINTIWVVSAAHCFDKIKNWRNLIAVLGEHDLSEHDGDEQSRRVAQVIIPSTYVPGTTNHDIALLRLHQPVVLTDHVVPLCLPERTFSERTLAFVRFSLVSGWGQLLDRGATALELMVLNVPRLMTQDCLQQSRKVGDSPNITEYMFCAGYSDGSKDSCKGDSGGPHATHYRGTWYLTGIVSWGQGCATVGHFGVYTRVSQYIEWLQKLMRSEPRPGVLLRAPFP
T1 sequence (P08709 61-212 limits assumed): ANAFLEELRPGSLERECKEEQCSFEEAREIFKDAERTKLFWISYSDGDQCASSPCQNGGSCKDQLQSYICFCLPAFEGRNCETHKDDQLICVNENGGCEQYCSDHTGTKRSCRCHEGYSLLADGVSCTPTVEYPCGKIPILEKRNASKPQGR
T1 sequence (P13726 33-251 partner limits assumed): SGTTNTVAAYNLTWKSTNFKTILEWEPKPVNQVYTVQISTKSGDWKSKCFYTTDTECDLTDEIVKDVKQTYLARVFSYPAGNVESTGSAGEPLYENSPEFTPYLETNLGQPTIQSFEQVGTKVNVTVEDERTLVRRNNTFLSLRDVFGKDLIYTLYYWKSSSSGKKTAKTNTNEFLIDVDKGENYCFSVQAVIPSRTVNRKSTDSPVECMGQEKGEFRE
Outline: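 Chromogenic read at OD405, compared with control for percent inhibition. Substrate N-methylsulfonyl-D-phe-gly-arg-p-nitroaniline at 0.4 mM is cleaved by recombinant human VIIa (2 nM) complexed with soluble TF (100 nM). Buffer: pH 8.0 Tris-HCl 50 mM, CaCl2 5 mM, NaCl 100 mM, BSA 0.1%.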

[5] = target: T2, Human factor Xa (Homo sapiens, UniProt P00742); assay: Xa assay (chromogenic substrate S-2765); format: biochemical; details: reported only as less than or greater than 30 uM; read-out: Factor Xa (II) IC50
T2 construct: purchased Enzyme Research Laboratories, South Bend Ind
T2 sequence (P00742 235-488 limits assumed): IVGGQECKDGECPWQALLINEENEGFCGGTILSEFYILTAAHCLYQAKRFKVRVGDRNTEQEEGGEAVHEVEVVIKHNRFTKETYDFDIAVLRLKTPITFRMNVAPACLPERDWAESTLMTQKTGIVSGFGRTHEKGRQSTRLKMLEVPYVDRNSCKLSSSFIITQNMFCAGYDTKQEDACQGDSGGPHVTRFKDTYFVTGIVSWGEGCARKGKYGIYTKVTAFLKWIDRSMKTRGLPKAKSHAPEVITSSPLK
T2 sequence (P00742 41-179 limits assumed): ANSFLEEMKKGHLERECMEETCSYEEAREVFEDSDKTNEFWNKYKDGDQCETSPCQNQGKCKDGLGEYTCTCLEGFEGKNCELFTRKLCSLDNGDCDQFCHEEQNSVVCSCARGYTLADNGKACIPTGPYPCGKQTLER
Outline: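 Chromogenic readout: S-2765 hydrolysis (0.15 mM) by 0.3 nM human FXa was monitored at 405 nm after 60 min at room temperature, with a time-zero background read. Buffer: 50 mM Tris-HCl, pH 8.0, 100 mM NaCl, 0.1% BSA. Inhibition is relative to buffer-only controls.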

[6] = system: Normal human pooled plasma; assay: Prothrombin time (PT) clotting assay; format: biochemical; details: concentration at which prothrombin time is prolonged by 2x normal, reported as less than or greater than 50 uM
Outline: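 Normal human pooled plasma incubated with 100 uM compound or saline, then thromboplastin (human tissue factor) added and clotting time recorded in a coagulation machine. Compounds exceeding 3× normal PT (11.0 s) are titrated to find the concentration doubling PT.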

[7] = target: T3, Human thrombin (Homo sapiens, UniProt P00734); assay: Thrombin assay (chromogenic substrate); format: biochemical; details: reported only as less than or greater than 30 uM; read-out: Thrombin (II) IC50
T3 construct: converts prothrombin (II) to thrombin (IIa); purchased Calbiochem, La Jolla, Calif
Outline: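 Percent inhibition derived by comparing OD405 nm of compound-treated and control samples. Thrombin cleavage of a p-nitroanilide chromogenic substrate provides the signal.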

[8] = Aspirin bolus followed by compound infusion 50 μg/kg/min (coadministered)
[9] = Aspirin bolus followed by compound infusion 100 μg/kg/min (coadministered)
[10] = compound infusion 100 μg/kg/min, no aspirin
[11] = compound infusion 200 μg/kg/min, no aspirin

| Structure (SMILES) | IC50 [4] | IC50 [5] | PT (Prothrombin time) 2xPT [6] | IC50 [7] | other results |
| --- | --- | --- | --- | --- | --- |
| CC(=O)Oc1ccccc1C(=O)O [Aspirin, reference compound] | – | – | – | – | Net Thrombus Wt ([1]; Aspirin bolus alone): 30.9 mg and 26.7 mg; Thrombus Wt: % Δ from Control ([1]; Aspirin bolus alone): −12% and −4%; Bleeding Time ([2]; Aspirin bolus alone): 4.6 min and 4.3 min; Prothrombin Time ([3]; Aspirin bolus alone): 11.8 s and 11.5 s |
| CC(C)Nc1ncc(-c2cc(N)cc(O)c2)n(CC(=O)NCc2ccc(C(=N)N)cc2)c1=O [Compounds 54 and 55] | – | – | – | – | Net Thrombus Wt [1, 8]: 19.5 mg; Thrombus Wt: % Δ from Control [1, 8]: −34%; Net Thrombus Wt [1, 9]: 3.6 mg; Thrombus Wt: % Δ from Control [1, 9]: −89%; Net Thrombus Wt [1, 10]: 15.3 mg; Thrombus Wt: % Δ from Control [1, 10]: −56%; Net Thrombus Wt [1, 11]: 5.1 mg; Thrombus Wt: % Δ from Control [1, 11]: −85%; Bleeding Time [2, 8]: 4.1 min; Bleeding Time [2, 9]: 4.7 min; Bleeding Time [2, 11]: 3.9 min; Prothrombin Time [3, 8]: 17.3 s; Prothrombin Time [3, 9]: 22.4 s; Prothrombin Time [3, 10]: 22.7 s; Prothrombin Time [3, 11]: 46.0 s |
| CCCCOc1cc(N)cc(-c2cnc(NC(C)C)c(=O)n2CC(=O)NCc2ccc(C(=N)N)cc2)c1.O=C(O)C(F)(F)F.O=C(O)C(F)(F)F [Example 222] | < 0.1 µM | > 30 µM | <50.0 µM | > 30 µM | – |
| CC(C)Nc1ncc(-c2cc(N)cc(OCC3CC3)c2)n(CC(=O)NCc2ccc(C(=N)N)cc2)c1=O.O=C(O)C(F)(F)F.O=C(O)C(F)(F)F [Example 223] | < 0.1 µM | > 30 µM | <50.0 µM | > 30 µM | – |
| CCC(C)Oc1cc(N)cc(-c2cnc(NC(C)C)c(=O)n2CC(=O)NCc2ccc(C(=N)N)cc2)c1.O=C(O)C(F)(F)F.O=C(O)C(F)(F)F (centres unmarked) [Example 224] | < 0.1 µM | > 30 µM | <50.0 µM | > 30 µM | – |
| CC(C)Nc1ncc(-c2cc(N)cc(OC3CCCCC3)c2)n(CC(=O)NCc2ccc(C(=N)N)cc2)c1=O.O=C(O)C(F)(F)F.O=C(O)C(F)(F)F [Example 225] | < 0.1 µM | > 30 µM | >50.0 µM | > 30 µM | – |
| CC(C)Nc1ncc(-c2cc(N)cc(-c3nnn[nH]3)c2)n(CC(=O)NCc2ccc(C(=N)N)cc2)c1=O.O=C(O)C(F)(F)F [Example 227, N-{4-[amino(imino)methyl]benzyl}-2-[6-[3-amino-5-(1H-tetraazol-5-yl)phenyl]-3-(isopropylamino)-2-oxopyrazin-1 (2H)-yl]acetamide] | < 0.1 µM | > 30 µM | <50.0 µM | > 30 µM | – |
| CC(C)Nc1ncc(-c2cc(N)cc(S(=O)(=O)CC(C)(C)C)c2)n(CC(=O)NCc2ccc(C(=N)N)cc2)c1=O.O=C(O)C(F)(F)F.O=C(O)C(F)(F)F [Example 228] | < 0.1 µM | > 30 µM | <50.0 µM | > 30 µM | – |
| CCC(CC)CS(=O)(=O)c1cc(N)cc(-c2cnc(NC(C)C)c(=O)n2CC(=O)NCc2ccc(C(=N)N)cc2)c1.O=C(O)C(F)(F)F.O=C(O)C(F)(F)F [Example 229] | < 0.1 µM | > 30 µM | <50.0 µM | > 30 µM | – |
